The test system of data set [1] is DU145 (human prostate cancer cells). The experiment in a line: Antiproliferative activity, WST1 colorimetric test, DU145. Type of data set: cell-based. The settings on record: DU-145, 96 hours treatment, up to 10 μM, read-out: Cl50 on the cell proliferation of the lines DU-145. How it is done:
(§1) iii) Characterization of the Antiproliferative Activity:
(§2) By way of example, the effect of a treatment on two human cell lines Mia-Paca2 and DU145 by the compounds of the examples described previously will be studied. The cell lines DU145 (human prostate cancer cells) and Mia-PaCa2 (human pancreas cancer cells) were acquired from the American Tissue Culture Collection (Rockville, Md., USA). The cells placed in 80 μl of Dulbecco's Modified Eagle's medium (Gibco-Brl, Cergy-Pontoise, France) completed with 10% foetal calf serum inactivated by heating (Gibco-Brl, Cergy-Pontoise, France), 50,000 units/l of penicillin and 50 mg/l of streptomycin (Gibco-Brl, 10378-057, Cergy-Pontoise, France), and 2 mM of glutamine (Gibco-Brl, Cergy-Pontoise, France) were seeded on a 96-well plate on day 0. The cells were treated on day 1 for 96 hours with increasing concentrations of each of the compounds to be tested up to 10 μM. At the end of this period, quantification of cell proliferation is evaluated by a colorimetric test based on the cleavage of the tetrazolium salt WST1 by the mitochondrial dehydrogenases in viable cells leading to the formation of formazan (Boehringer Mannheim, Meylan, France). These tests are carried out in duplicate with 8 determinations per concentration tested. For each compound to be tested, the values included in the linear part of the sigmoid were retained for a linear regression analysis and used to estimate the inhibitory concentration IC50. The products are solubilized in dimethylsulphoxide (DMSO) at 10^−2 M and used in culture with 0.1% DMSO final.
In general terms: Tetrazolium assays rely on reduction of a dye to a coloured formazan, in cell work by metabolically active cells.

The test system of data set [2] is Mia-PaCa2 (human pancreas cancer cells). Kind of data set: Antiproliferative activity, WST1 colorimetric test, Mia-PaCa2. Type of data set: cell-based. Particulars: MIA PaCa-2, 96 hours treatment, up to 10 μM, read-out: CI50 on the cell proliferation of the lines Mia-Paca2. How it is done: as §1, §2

Counter-ions that a name gives are not always drawn. A value given as a limit tells only on which side of the number the result lay.

In the case of `Cc1nc2c(s1)C(=O)C=C(NCCN1CCOCC1)C2=O` [Example 1, 2-methyl-5-{[2-(4-morpholinyl)ethyl]amino}-1,3-benzothiazole-4,7-dione], in data set [1], the IC50 is no more than 10 µM.
For `Cc1nc2c(s1)C(=O)C=C(NCCN(C)C)C2=O` [Example 2, 5-{[2-(dimethylamino)ethyl]amino}-2-methyl-1,3-benzothiazole-4,7-dione hydrochloride], the IC50 in data set [1] was no more than 10 µM.
Regarding `Cc1nc2c(s1)C(=O)C=C(NCCCCCCN(C)C)C2=O` [Example 3, 5-{[6-(dimethylamino)hexyl]amino}-2-methyl-1,3-benzothiazole-4,7-dione], the IC50 in data set [1] was no more than 10 µM.
As to `Cc1nc2c(s1)C(=O)C=C(NCC(C)(C)CN(C)C)C2=O` [Example 4, 5-{[3-(dimethylamino)-2,2-dimethylpropyl]amino}-2-methyl-1,3-benzothiazole-4,7-dione], in data set [1], the IC50 was no more than 10 µM.
With `Cc1nc2c(s1)C(=O)C=C(NCCCN1CCN(C)CC1)C2=O` [Example 5, 2-methyl-5-{[3-(4-methyl-1-piperazinyl)propyl]amino}-1,3-benzothiazole-4,7-dione], the IC50 in data set [1] is no more than 10 µM.
In the case of `CCCCCC(CC)NC1=CC(=O)c2sc(C)nc2C1=O` (stereo not shown) [Example 6, 5-[(1-ethylhexyl)amino]-2-methyl-1,3-benzothiazole-4,7-dione], in data set [1], the IC50 is no more than 10 µM.
Turning to `Cc1nc2c(s1)C(=O)C=C(NCC13CC4CC(CC(C4)C1)C3)C2=O` [Example 7, 5-[(1-adamantylmethyl)amino]-2-methyl-1,3-benzothiazole-4,7-dione], in data set [1], the IC50 is no more than 10 µM.
As to `Cc1nc2c(s1)C(=O)C=C(NCc1cccs1)C2=O` [Example 8, 2-methyl-5-[(2-thienylmethyl)amino]-1,3-benzothiazole-4,7-dione], the IC50 in data set [1] is no more than 10 µM.
Turning to `Cc1nc2c(s1)C(=O)C=C(NCc1cccc(Cl)c1)C2=O` [Example 9, 5-[(3-chlorobenzyl)amino]-2-methyl-1,3-benzothiazole-4,7-dione], in data set [1], the IC50 was no more than 10 µM.
In the case of `Cc1nc2c(s1)C(=O)C=C(N1CCN(Cc3ccccc3)CC1)C2=O` [Example 14, 5-(4-benzyl-1-piperazinyl)-2-methyl-1,3-benzothiazole-4,7-dione], in data set [1], the IC50 was no more than 10 µM.
The compound `CCc1nc2c(o1)C(=O)C=C(Nc1ccccc1)C2=O` [Example 15, 5-anilino-2-ethyl-4,7-dihydrobenzo[d][1,3]oxazole-4,7-dione] came in with a melting point of 200 °C. The IC50 in data set [2] was no more than 10 µM. Moreover, the IC50 in data set [1] was no more than 10 µM.
In turn, `CCc1nc2c(o1)C(=O)C(Cl)=C(Nc1ccccc1)C2=O` [Example 16, 5-anilino-6-chloro-2-ethyl-1,3-benzoxazole-4,7-dione] came in with a melting point of 159 °C. In data set [2], the IC50 is no more than 10 µM. Further, the IC50 in data set [1] is no more than 10 µM.
As for `CCc1nc2c(o1)C(=O)C=C(Nc1ccc(F)cc1)C2=O` [Example 17, 2-ethyl-5-[(4-fluorophenyl)amino]-1,3-benzoxazole-4,7-dione], the melting point came out at 232 °C. Also, in data set [2], the IC50 is no more than 10 µM. For the same compound, the IC50 in data set [1] is no more than 10 µM.
In the case of `COCCNC1=CC(=O)c2sc(C)nc2C1=O` [Example 18, 5-[(2-methoxyethyl)amino]-2-methyl-1,3-benzothiazole-4,7-dione], the IC50 in data set [1] was no more than 10 µM.
As to `Cc1nc2c(s1)C(=O)C=C(NCCN1CCCC1)C2=O` [Example 19, 2-methyl-5-[(2-pyrrolidin-1-ylethyl)amino]-1,3-benzothiazole-4,7-dione], in data set [1], the IC50 is no more than 10 µM.
With `Cc1nc2c(s1)C(=O)C=C(NCCN1CCCCC1)C2=O` [Example 20, 2-methyl-5-[(2-piperidin-1-ylethyl)amino]-1,3-benzothiazole-4,7-dione], the IC50 in data set [1] was no more than 10 µM.
Turning to `Cc1nc2c(s1)C(=O)C=C(NCCN(C(C)C)C(C)C)C2=O` [Example 21, 5-{[2-(diisopropylamino)ethyl]amino}-2-methyl-1,3-benzothiazole-4,7-dione], the IC50 in data set [1] is no more than 10 µM.
Consider `Cc1nc2c(s1)C(=O)C=C(NC1CCN(Cc3ccccc3)C1)C2=O` (stereo not shown) [Example 22, 5-[(1-benzylpyrrolidin-3-yl)amino]-2-methyl-1,3-benzothiazole-4,7-dione], for which, in data set [1], the IC50 is no more than 10 µM.
With `Cc1nc2c(s1)C(=O)C=C(NCCCN(C)C)C2=O` [Example 23, 5-{[3-(dimethylamino)propyl]amino}-2-methyl-1,3-benzothiazole-4,7-dione], the IC50 in data set [1] was no more than 10 µM.
On the same count and under the same terms, under `Cc1nc2c(s1)C(=O)C=C(NCCC1CCCN1C)C2=O` (stereo not shown) [Example 24, 2-methyl-5-{[2-(1-methylpyrrolidin-2-yl)ethyl]amino}-1,3-benzothiazole-4,7-dione] stands no more than 10 µM.
On to `Cc1nc2c(s1)C(=O)C=C(NCCCN1CCCCC1C)C2=O` (stereo not shown) [Example 25, 2-methyl-5-{[3-(2-methylpiperidin-1-yl)propyl]amino}-1,3-benzothiazole-4,7-dione], for which the IC50 in data set [1] was no more than 10 µM.
In the case of `Cc1nc2c(s1)C(=O)C=C(NCCCCN(C)C)C2=O` [Example 26, 5-{[4-(dimethylamino)butyl]amino}-2-methyl-1,3-benzothiazole-4,7-dione], the IC50 in data set [1] is no more than 10 µM.
In the case of `Cc1nc2c(s1)C(=O)C=C(NCCCCCN(C)C)C2=O` [Example 27, 5-{[5-(dimethylamino)pentyl]amino}-2-methyl-1,3-benzothiazole-4,7-dione], the IC50 in data set [1] was no more than 10 µM.
Regarding `Cc1nc2c(s1)C(=O)C=C(NC1CCc3ccccc31)C2=O` (stereo not shown) [Example 28, 5-(2,3-dihydro-1H-inden-1-ylamino)-2-methyl-1,3-benzothiazole-4,7-dione], the IC50 in data set [1] is no more than 10 µM.
For the compound `Cc1nc2c(s1)C(=O)C=C(N(CCN(C)C)Cc1ccccc1)C2=O` [Example 29, 5-{benzyl[2-(dimethylamino)ethyl]amino}-2-methyl-1,3-benzothiazole-4,7-dione], the IC50 in data set [1] was no more than 10 µM.
For the compound `Cc1nc2c(s1)C(=O)C=C(NCCCN(C)C(=O)OC(C)(C)C)C2=O` [Example 30, tert-butyl methyl{3-[(2-methyl-4,7-dioxo-4,7-dihydro-1,3-benzothiazole-5-yl)amino]propyl}carbamate], the IC50 in data set [1] was no more than 10 µM.
On to `Cc1nc2c(s1)C(=O)C=C(NCCCNC(=O)OC(C)(C)C)C2=O` [Example 31, tert-butyl 3-[(2-methyl-4,7-dioxo-4,7-dihydro-1,3-benzothiazol-5-yl)amino]propylcarbamate], for which the IC50 in data set [1] was no more than 10 µM.
For the compound `CNCCCNC1=CC(=O)c2sc(C)nc2C1=O` [Example 32, 2-methyl-5-{[3-(methylamino)propyl]amino}-1,3-benzothiazole-4,7-dione hydrochloride], the IC50 in data set [1] was no more than 10 µM.
With `Cc1nc2c(s1)C(=O)C=C(NCCCN)C2=O` [Example 33, 5-[(3-aminopropyl)amino]-2-methyl-1,3-benzothiazole-4,7-dione], the IC50 in data set [2] and in data set [1] was no more than 10 µM throughout.
With `Cc1nc2c(s1)C(=O)C(Cl)=C(NCCN(C)C)C2=O` [Example 34], the IC50 in data set [1] was no more than 10 µM.
Regarding `CCCCSC1=C(NCCN(C)C)C(=O)c2nc(C)sc2C1=O` [Example 36, 6-(butylthio)-5-{[2-(dimethylamino)ethyl]amino}-2-methyl-1,3-benzothiazole-4,7-dione], in data set [1], the IC50 is no more than 10 µM.
Regarding `CN(C)CCNC1=CC(=O)c2sc(CN3CCOCC3)nc2C1=O` [Example 37, 5-{[2-(dimethylamino)ethyl]amino}-2-(morpholin-4-ylmethyl)-1,3-benzothiazole-4,7-dione], the IC50 in data set [1] was no more than 10 µM.
Take `CN(C)CCNC1=CC(=O)c2sc(CN3CCN(c4ccccc4)CC3)nc2C1=O` [Example 38]: the IC50 in data set [1] is no more than 10 µM.
In the case of `CN(C)CCNC1=CC(=O)c2sc(CN3CCCCC3)nc2C1=O` [Example 39, 5-{[2-(dimethylamino)ethyl]amino}-2-(piperidin-1-ylmethyl)-1,3-benzothiazole-4,7-dione], in data set [1], the IC50 is no more than 10 µM.
As to `CCc1nc2c(o1)C(=O)C(C)=C(NCCN(C)C)C2=O` [Example 55, 5-{[2-(dimethylamino)ethyl]amino}-2-ethyl-6-methyl-1,3-benzoxazole-4,7-dione], the melting point amounted to 135 °C. Further, the IC50 in data set [1] was no more than 10 µM.

A word on the melting point: it is the temperature of the solid-liquid transition.

For the origin of these results see patent US7495021B2, “Benzothiazole- and benzooxazole-4,7-dione, derivatives and their use as cdc25 phosphate inhibitors” (Societe de Conseils de Recherches et d'Applications …, priority 2001, dated 2009).
